This is an account of results in patent US20260132160A1, “IRON REPLACEMENT TREATMENTS” (The General Hospital Corporation, priority 2022, published 2026).

Data set [1] can be described thus: pH-potentiometric titration, Fe3+ complex. The data set is classed as physicochemical. To be noted: 310 K, I=0.1 M NaCl. As for the experimental part:
The aqueous solutions thermodynamics of BBG and its corresponding complexes of Fe^3+, Cu^2+, and Zn^2+ were interrogated through pH-potentiometric titration of BBG (L) in the absence and presence of 1 molar equivalent of Fe^3+, Cu^2+, or Zn^2+, FIG. 13A.
pH-potentiometric measurements were performed using an Orion ROSS Ultra pH electrode and temperature-controlled reaction vessel held at 310 K. A standardized solution of 0.10 M NaOH was used as the titrant. The electrode was calibrated prior to each titration by titrating a standardized HCl(aq) solution at ionic strength 0.10 using NaCl as the inert electrolyte with the standardized NaOH titrant. A working slope and intercept were generated by plotting mV as a function of calculated pH, which enabled direct conversion of electrode readings to [H^+] during sample titrations. pH values recorded during the titrations refers to hydrogen ion concentration. All titration samples were prepared in solutions of 0.10 M NaCl in distilled, deionized water. Ligand solutions were prepared by dissolving a weighed quantity into water and concentration was determined from the effective weight of the ligand and confirmed by the quantity of NaOH required to consume 1 molar equivalent of ligand proton. […]

Data set [2] in a line: Ascorbate reduction challenge (UV-vis). The class given is physicochemical. The settings on record: 0.1 mM Fe-BBG, 0.1 mM sodium ascorbate, pH 7.4.
For data set [3], the target named is T1, apo-transferrin (Homo sapiens, UniProt P02787). As to the kind of experiment: Time course of Fe3+ transfer to apo-transferrin (fluorescence at 330 nm). The data set is classed as biochemical. To be noted: 40 μM Fe-BBG, 20 μM apo-transferrin, pH 7.4; instrument temporal resolution 6 s. As for the experimental part: FIG. 5 plots the time course of Fe^3+ transfer of Fe-BBG to transferrin. The reaction was monitored through the quenching of apo-transferrin intrinsic fluorescence (conditions: 40 μM Fe-BBG, 20 μM apo-transferrin, 50 mM HEPES buffer supplemented with 25 mM HCO3, pH 7.4; 25° C. λEx=280 nm.). Fe^3+ transfer from Fe-BBG to apo-transferrin was complete within 6 s. The temporal resolution of the instrument is 6 s, and the reaction is too fast for us to quantify kinetics.
T1 sequence (P02787 20-698): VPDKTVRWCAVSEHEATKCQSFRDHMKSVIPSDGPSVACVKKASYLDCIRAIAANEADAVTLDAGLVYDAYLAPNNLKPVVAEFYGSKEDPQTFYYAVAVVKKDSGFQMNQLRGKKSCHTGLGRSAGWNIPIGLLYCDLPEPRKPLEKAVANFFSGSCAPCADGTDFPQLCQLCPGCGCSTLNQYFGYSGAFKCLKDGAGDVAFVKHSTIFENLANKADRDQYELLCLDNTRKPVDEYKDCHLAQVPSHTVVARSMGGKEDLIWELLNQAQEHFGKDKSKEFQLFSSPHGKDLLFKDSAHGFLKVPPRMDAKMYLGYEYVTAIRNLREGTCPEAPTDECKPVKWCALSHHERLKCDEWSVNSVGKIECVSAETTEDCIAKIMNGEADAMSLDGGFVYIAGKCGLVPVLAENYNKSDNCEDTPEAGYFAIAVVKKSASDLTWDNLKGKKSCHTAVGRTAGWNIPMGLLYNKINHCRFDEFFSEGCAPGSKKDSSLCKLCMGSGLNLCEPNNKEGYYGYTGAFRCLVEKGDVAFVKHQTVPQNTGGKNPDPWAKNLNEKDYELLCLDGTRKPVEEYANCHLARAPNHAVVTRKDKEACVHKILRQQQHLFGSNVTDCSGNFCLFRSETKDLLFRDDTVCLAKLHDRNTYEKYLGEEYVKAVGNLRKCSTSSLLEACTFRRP

The nature of data set [4]: Stability of Fe-BBG against trans-chelation by endogenous chelators (UV-vis). The data set is classed as physicochemical. From the text:
In other words, the ligand BBG binds to Fe^3+ with an estimated 230±40 times higher affinity than citrate.

Data set [5] concerns the target T1, apo-transferrin. Put plainly: Fe delivery to apo-transferrin (fluorescence quenching, urea gel electrophoresis). The data set is classed as biochemical. The protocol:
Incubation with FPC was positive control, the stable compound Fe-PyC3A was negative control (Conditions: 50 mM HEPES buffer supplemented with 25 mM bicarbonate, pH 7.4, 37° C.).
Transfer of Fe from Fe-BBG to apo-transferrin can be monitored through quenching of the apo-transferrin intrinsic fluorescence.
Transfer of Fe from Fe-BBG to apo-transferrin can also be monitored using urea gel electrophoresis.

A further data set relates to Tmprss6 knockout mice. Put plainly: Therapeutic efficacy in mouse model of iron refractory iron deficiency anemia. The class given is in vivo. The protocol:
Tmprss6 knockout mice received 29 intraperitoneal injections each containing 25 μg Fe as Fe-BBG (1.3±0.18 μg Fe per gram body weight, N=5 mice, 2 male, 3 female) or containing saline (placebo, N=5 mice, 2 male, 3 female) over 15 days. The cumulative dose of Fe was 725 μg Fe (37±0.53 μg Fe per gram body weight). The mice were euthanized 120 min after the final injection. Blood was harvested for measurement of complete blood counts, and nonheme Fe parameters. Bone marrow and liver tissue were analyzed by qPCR for expression of genes related to erythropoietic activity, Fe exposure, oxidative stress, and inflammation, the data are tabulated in FIG. 15. Clinical chemistry was also recorded, see Example 16 below. FIG. 15 data are shown as mean±standard deviation. Statistical differences between groups were determined by two-tailed Student's t-test for normally distributed values or Mann-Whitney (/test for non-normally distributed values. Significant differences are indicated by *P<0.05, **P<0.01, ****P<0.0001.

The mark [6] stands for this setting: 29 i.p. injections of 25 μg Fe over 15 days, vs placebo.
Where [7] appears, read: 120 min after final injection, vs placebo.

`O.O.O=C([O-])CC[C@H]1C(=O)[O][Fe]2[O]c3ccccc3CN1Cc1ccccc1[O]2` [Fe-BBG]: the “conditional pH 7.4 stability constant log KFeL PH 7.4” value in data set [1] turned out to be 19.51. For the same compound, in data set [2], the “462 nm absorption peak upon challenge with ascorbate” value was “remains unchanged”. Besides, the “time to complete Fe^3+ transfer to apo-transferrin” value on apo-transferrin [3] is ≤ 6 s. Also, the “stability against trans-chelation by endogenous chelators” value in data set [4] was “stable against trans-chelation reactions”. Besides, the “Kcomp for challenge with citrate” value in data set [4] (0-10 molar equivalents citrate, absorbance at 465 nm, pH 7.4) stood at 0.006±0.002. The “UV-vis traces in presence of competing chelators” value in data set [4] (0.1 mM Fe-BBG, up to 100 molar equivalents bicarbonate, acetate, lactate, phosphate, pH 7.4 50 mM HEPES) is recorded as “remain unchanged”. The “Fe^3+ transfer to apo-transferrin” value on apo-transferrin [5] (50 mM HEPES, 25 mM bicarbonate, pH 7.4, 37° C.) is recorded as “stoichiometric transfer”. Moreover, the “Fe^3+ transferred to apo-transferrin” value on apo-transferrin [5] (urea gel, 10 μM apo-transferrin, 0-10 equiv Fe-BBG) is recorded as 2 molar equivalents. In the data set on Tmprss6 knockout mice (setting [6]), the hematocrit result is recorded as “increased significantly”, the hemoglobin entry is reported as “significant elevation”, the mean corpuscle volume entry is “significantly increased” and the red cell width result is given as “significantly increased”. In the data set with Tmprss6 knockout mice (setting [7]), the “mean % TSAT increase” value is listed as ~7 fold, the “serum Fe” value is given as “elevated”, the “total iron binding capacity (TIBC)” value is recorded as “unchanged relative to placebo” and the “unbound iron binding capacity (UIBC)” value was “concomitant decrease”. The “clearance of Fe-BBG from serum” value in the data set on Tmprss6 knockout mice (120 min after the final injection) is listed as “cleared entirely”. In addition, in the data set on Tmprss6 knockout mice (qPCR), the “bone marrow erythroferrone (Erfe) expression” value was “significantly downregulated”. Besides, in the data set on Tmprss6 knockout mice (qPCR, bone marrow), the “glycophorin A (GypA) expression” value is “downregulated” and the “transferrin receptor type 1 (Tfrc) expression” value is “downregulated”. Also, in the data set on Tmprss6 knockout mice (vs placebo), the other hematology parameters entry is on record as “No noteworthy differences”.
